Patent US5157052A, “Method for inhibiting IgE production” (priority 1990, dated 1992)

Columns and labels:
IgG1 = test: Serum IgG1 in anti-IgD stimulated mice (two site sandwich ELISA, Assay B); assay type: in vivo, mouse (Balb/c female)
MHC Class II = test: Splenocyte cell surface density/distribution (FACS): MHC Class II; assay type: in vivo, mouse (Balb/c female)
Experimental: One group of 4 unstimulated Balb/c female mice is injected with PBS (Group A). Another (Group B) is injected with 20 μg (±) methyl 11α,16-dihydroxy-16-methyl-9-oxoprosta-5Z,13E-dien-1-oate as in Example 13. […] A 3 cm incision is made with a scalpel above the left hip, and the spleen is cut free from adjoining tissue and placed in a 100 mn plastic culture dish containing 10 ml PBS. The splenic cells are then made into a suspension, by rubbing the spleens between the rough, frosted ends of microscope slides repeatedly until the only remaining particulate matter is connective tissue. Cells are transferred to a 15 ml conical polystyrene tube and centrifuged in a centrifuge at 1200 rpm for 5 minutes. The supernatant is discarded by aspiration and the cell pellet is resuspended in 10 ml PBS, then centrifuged at 1200 rpm for 5 minutes. The supernatant is aspirated and the cell pellet is resuspended in 15 mM Tris, 140 mM Ammonium Chloride, to lyse red blood cells. After incubating at room temperature for 10 minutes the cell suspension is centrifuged at 1200 rpm for 10 minutes. The supernatant is discarded and the cell pellet is resuspended in 10 ml FACS Buffer (PBS containing 0.1% BSA and 0.1% Sodium Azide). The cell suspension is filtered through sterile glass wool plugged in the top of a pasteur pipet. Cells in the flow through are counted using a hemacytometer, then the cell suspension is centrifuged at 1200 rpm for 5 minutes. The supernatant is discarded and the cell pellet is resuspended in a volume of FACS Buffer that will yield 4×10^7 cells/ml. 10 μl (4×10^5 cells) is added to each well of a 96-well V-bottom plate. 25 μl of diluted monoclonal antibody directed against splenocyte cell surface proteins is added to each well: Major Histocompatability Complex (MHC) Class II (M5114, ATCC, Rockville Md.), MHC Class I (M1/42, ATCC), Anti-IgD (JA12.5, ATCC, Rockville, Md.), Thymocyte (Thy)-1 (JIJ, ATCC), B220 (14.8, ATCC), Kappa light chain (187, ATCC), IL-2 Receptor (7D4, ATCC), Lyt-1 (7.313, ATCC) and CD23 (biotinylated B3B4) and incubated on ice for 30 minutes. 100 μl 10% BSA 0.1% sodium azide is added to each well, then the plates are centrifuged at 1200 rpm for 10 minutes. The liquid is removed by aspiration and the cell pellets are resuspended in 100 μl FACS Buffer, and centrifuged at 1200 rpm for 5 minutes. […] Samples are transferred to individual tubes and 10,000 cells are analyzed. Using the Lysis software (Becton Dickinson, Mountain View, Calif.) the mean channel log fluorescence and percent positive cells are determined for the entire cell population. […]

CCCCC(C)(O)C/C=C/[C@H]1[C@H](O)CC(=O)[C@@H]1C/C=C\CCCC(=O)OC (mixture of isomers) [(±) methyl 11α,16-dihydroxy-16-methyl-9-oxoprosta-5Z,13E-dien-1-oate]
IgG1 ± SD (IgG1; 2 μg IP days 3 and 4, day 7 (control 4808)): 3220 ± 985 µg/mL
IgG1 ± SD (IgG1; 2 μg IP days 3 and 4, day 8 (control 13818)): 12947 ± 2195 µg/mL
IgG1 ± SD (IgG1; 2 μg IP days 3 and 4, day 9 (control 17700)): 19938 ± 3279 µg/mL
IgG1 ± SD (IgG1; 2 μg IP days 3 and 4, day 11 (control 17100)): 17589 ± 1923 µg/mL
IgG1 ± SD (IgG1; 2 μg IP days 3 and 4, day -1 baseline before treatment): 215 ± 124 µg/mL
IgG1 ± SD (IgG1; 5 μg IP days 3 and 4, day 7): 6902 ± 3604 µg/mL
IgG1 ± SD (IgG1; 5 μg IP days 3 and 4, day 8): 18202 ± 5327 µg/mL
IgG1 ± SD (IgG1; 5 μg IP days 3 and 4, day 9): 27069 ± 3257 µg/mL
IgG1 ± SD (IgG1; 5 μg IP days 3 and 4, day 11): 23205 ± 6506 µg/mL
IgG1 ± SD (IgG1; 5 μg IP days 3 and 4, day -1 baseline before treatment): 248 ± 189 µg/mL
IgG1 ± SD (IgG1; 10 μg IP days 3 and 4, day 7): 6952 ± 3410 µg/mL
IgG1 ± SD (IgG1; 10 μg IP days 3 and 4, day 8): 17649 ± 3158 µg/mL
IgG1 ± SD (IgG1; 10 μg IP days 3 and 4, day 9): 26978 ± 11752 µg/mL
IgG1 ± SD (IgG1; 10 μg IP days 3 and 4, day 11): 26361 ± 6660 µg/mL
IgG1 ± SD (IgG1; 10 μg IP days 3 and 4, day -1 baseline before treatment): 166 ± 14 µg/mL
IgG1 ± SD (IgG1; 20 μg IP days 3 and 4, day 7): 6816 ± 3349 µg/mL
IgG1 ± SD (IgG1; 20 μg IP days 3 and 4, day 8): 16838 ± 4174 µg/mL
IgG1 ± SD (IgG1; 20 μg IP days 3 and 4, day 9): 23900 ± 11791 µg/mL
IgG1 ± SD (IgG1; 20 μg IP days 3 and 4, day 11): 24998 ± 7169 µg/mL
IgG1 ± SD (IgG1; 20 μg IP days 3 and 4, day -1 baseline before treatment): 255 ± 66 µg/mL
IgG1 ± SD (IgG1; 40 μg IP days 3 and 4, day 7): 5168 ± 2391 µg/mL
IgG1 ± SD (IgG1; 40 μg IP days 3 and 4, day 9): 24337 ± 4729 µg/mL
IgG1 ± SD (IgG1; 40 μg IP days 3 and 4, day 11): 25930 ± 4376 µg/mL
Percentage Positive Cells (MHC Class II; anti-IgD stimulated mice, 20 μg days 3 and 4, day 7 (PBS 59.8)): 68.6 ± 5.1%
Mean Channel Log Fluorescence (MHC Class II; anti-IgD stimulated mice, 20 μg days 3 and 4, day 7 (PBS 134)): 137 ± 15
Percentage Positive Cells (MHC Class II; unstimulated mice, 20 μg (PBS 56.2)): 56.9 ± .4%
Mean Channel Log Fluorescence (MHC Class II; unstimulated mice, 20 μg (PBS 148)): 149 ± 8
